Counter-ions that a name gives are not always drawn.
Test system: gastric lesions induced by taurocholate acid, aspirin or indomethacin
Experiment: not given
Conditions: rats, J Pharmacol Exp Ther 1992, 263(1), 374-380; cited from earlier work

Structure (SMILES)	gastric lesions
O=C(O)Cc1ccc(CCNS(=O)(=O)c2ccc(Cl)cc2)cc1 [BM 13505]	inhibit gastric lesions
O=C(O)CCc1ccccc1CC1C2CCC(O2)C1c1nc(C(=O)NCCCCC2CCCCC2)co1 (stereo not drawn) [SQ 33961]	inhibit gastric lesions

Test system: rat model of chronic constriction injury
Experiment: not given
Conditions: Anesthesia and Analgesia 2001, 93, 1012-7; cited from earlier work

Structure (SMILES)	hyperalgesia and allodynia
Cc1cc(Cl)ccc1S(=O)(=O)NC[C@H]1C2CCC(CC2)[C@@H]1/C=C\CCCC(=O)O [ONO-8711]	reduces hyperalgesia and allodynia

Target: T1, human EP3 receptor (Homo sapiens, UniProt P43115)
T1 construct: expressed in transfected cells; host or cells: CHO-K1
T1 sequence (P43115 1-390): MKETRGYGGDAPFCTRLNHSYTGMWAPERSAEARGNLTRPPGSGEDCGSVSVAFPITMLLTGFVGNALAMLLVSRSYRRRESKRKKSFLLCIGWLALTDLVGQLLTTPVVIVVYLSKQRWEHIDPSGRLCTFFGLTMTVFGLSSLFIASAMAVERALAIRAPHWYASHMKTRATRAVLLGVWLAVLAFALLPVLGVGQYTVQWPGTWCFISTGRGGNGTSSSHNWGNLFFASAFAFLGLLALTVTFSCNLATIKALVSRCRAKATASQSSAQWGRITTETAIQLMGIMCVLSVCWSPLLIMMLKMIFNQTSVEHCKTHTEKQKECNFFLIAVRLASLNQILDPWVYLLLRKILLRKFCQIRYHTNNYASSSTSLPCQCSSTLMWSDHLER
Experiment: human EP3 calcium mobilisation assay
Assay type: cell-based
Conditions: negative logarithm10 of the antagonist dissociation constant; CHO-K1 cells, PGE2; free bases or sodium salts; averages of a number of experiments; read-out: functional pKi value (converted)
Experimental: Briefly, the antagonist properties of compounds are assessed by their ability to inhibit the mobilisation of intracellular calcium ([Ca^2+]i) in response to activation of EP1 or EP3 receptors by the natural agonist hormone prostaglandin E2 (PGE2). Increasing concentrations of antagonist reduce the amount of calcium that a given concentration of PGE2 can mobilise. The net effect is to displace the PGE2 concentration-effect curve to higher concentrations of PGE2. The amount of calcium produced is assessed using a calcium-sensitive fluorescent dye such as Fluo-4, AM and a suitable instrument such as a Fluorimetric Imaging Plate Reader (FLIPR). Increasing amounts of [Ca^2+]i produced by receptor activation increase the amount of fluorescence produced by the dye and give rise to an increasing signal. The signal may be detected using the FLIPR instrument and the data generated may be analysed with suitable curve-fitting software.
The human EP1 or EP3 calcium mobilisation assay (hereafter referred to as ‘the calcium assay’) utilises Chinese hamster ovary-K1 (CHO-K1) cells into which a stable (pCIN; BioTechniques 20 (1996): 102-110) vector containing either EP1 or EP3 cDNA has previously been transfected. Cells are cultured in suitable flasks containing culture medium such as DMEM:F-12 supplemented with 10% v/v foetal calf serum, 2 mM L-glutamine, 0.25 mg/ml geneticin, 100 μM flurbiprofen and 10 μg/ml puromycin.
For assay, cells are harvested using a proprietary reagent that dislodges cells such as Versene. Cells are re-suspended in a suitable quantity of fresh culture media for introduction into a 384-well plate. Following incubation for 24 hours at 37° C. the culture media is replaced with a medium containing Fluo-4 and the detergent pluronic acid, and a further incubation takes place. Concentrations of compounds are then added to the plate in order to construct concentration-effect curves. This may be performed on the FLIPR in order to assess the agonist properties of the compounds. Concentrations of PGE2 are then added to the plate in order to assess the antagonist properties of the compounds.
The data so generated may be analysed by means of a computerised curve-fitting routine. The concentration of compound that elicits a half-maximal inhibition of the calcium mobilisation induced by PGE2 (plC50) may then be estimated.

Structure (SMILES)	Ki [nM]
CCC(C)NC(=O)Oc1cc(C)n(Cc2cc(Cl)ccc2OCC(C)C)n1 (stereo not drawn) [Example 50, 1-({5-Chloro-2-[(2-methylpropyl)oxy]phenyl}methyl)-5-methyl-1H-pyrazol-3-yl (1-methylpropyl)carbamate]	158 to 316
Cc1cc(OC(=O)NC2CCCC2)nn1Cc1cc(Cl)ccc1OCC(C)C [Example 52, 1-({5-Chloro-2-[(2-methylpropyl)oxy]phenyl}methyl)-5-methyl-1H-pyrazol-3-yl cyclopentylcarbamate]	158 to 316
Cc1cc(N(C)C(=O)OC(C)(C)C)nn1Cc1cc(Cl)ccc1OCc1ccccc1 [Example 75, 1,1-Dimethylethyl[({5-chloro-2-[(phenylmethyl)oxy]phenyl}methyl)-5-methyl-1H-pyrazol-3-yl]methylcarbamate]	158 to 316
Cc1cc(NC(=O)C(F)(F)F)nn1Cc1cc(Cl)ccc1OCC(C)C [Example 95, N-[1-({5-Chloro-2-[(2-methylpropyl)oxy]phenyl}methyl)-5-methyl-1H-pyrazol-3-yl]-2,2,2-trifluoroacetamide]	158 to 316

The remaining lines, values ahead:

Ki [nM]	Structure (SMILES)
158 to 316	Cc1cc(N(C)C(=O)c2ccccc2)nn1Cc1cc(Cl)ccc1OCc1ccccc1 [Example 180, N-[1-({5-Chloro-2-[(phenylmethyl)oxy]phenyl}methyl)-5-methyl-1H-pyrazol-3-yl]-N-methylbenzamide]
158 to 316	Cc1cc(NC(=O)c2ccccc2CO)nn1Cc1cc(Cl)ccc1OCC(C)C [Example 183, N-[1-({5-Chloro-2-[(2-methylpropyl)oxy]phenyl}methyl)-5-methyl-1H-pyrazol-3-yl]-2-(hydroxymethyl)benzamide]
158 to 316	Cc1cc(N2Cc3ccccc3C2=O)nn1Cc1cc(Cl)ccc1OCC(C)C [Example 184, 2-[1-({5-Chloro-2-[(2-methylpropyl)oxy]phenyl}methyl)-5-methyl-1H-pyrazol-3-yl]-2,3-dihydro-1H-isoindol-1-one]
158 to 316	Cc1cc(NC(=O)c2cccc(C=O)c2)nn1Cc1cc(Cl)ccc1OCC(C)C [Example 187, N-[1-({5-Chloro-2-[(2-methylpropyl)oxy]phenyl}methyl)-5-methyl-1H-pyrazol-3-yl]-3-formylbenzamide]
158 to 316	Cc1cc(N2CCN(Cc3ccccn3)CC2=O)nn1Cc1cc(Cl)ccc1OCC(C)C [Example 227, 1-[1-({5-Chloro-2-[(2-methylpropyl)oxy]phenyl}methyl)-5-methyl-1H-pyrazol-3-yl]-4-(2-pyridinylmethyl)-2-piperazinone dihydrochloride]
158 to 316	Cc1cc(-c2cn3ccccc3n2)nn1Cc1cc(Cl)ccc1OCC(C)C [Example 364, 2-[1-({5-Chloro-2-[(2-methylpropyl)oxy]phenyl}methyl)-5-methyl-1H-pyrazol-3-yl]imidazo[1,2-a]pyridine hydrochloride]
158 to 316	CCOC(CNC(=O)c1cc(C)n(Cc2cc(Cl)ccc2OCC(C)C)n1)OCC [Example 387, N-[2,2-Bis(ethyloxy)ethyl]-1-({5-chloro-2-[(2-methylpropyl)oxy]phenyl}methyl)-5-methyl-1H-pyrazole-3-carboxamide]

Test system: rodent model of post-operative pain
Experiment: not given
Conditions: Anesthesia and Analgesia 2001, 92, 233-238; cited from earlier work

Structure (SMILES)	mechanical hyperalgesia
Cc1cc(Cl)ccc1S(=O)(=O)NC[C@H]1C2CCC(CC2)[C@@H]1/C=C\CCCC(=O)O [ONO-8711]	inhibits mechanical hyperalgesia

— patent US20090239845A1, “PYRAZOLE COMPOUNDS AS PROSTAGLANDIN RECEPTORS LIGANDS” (priority 2005, published 2009)
